The values below come from patent publication US9834514B2, “Antibiotic sensitivity-restoring and photosensitive agents” (New Mexico Tech Research Foundation, priority 2015, dated 2017).

Values after ≈ are worked out from the molar mass of the structure shown. Read-outs that look alike come from different tables or passages of the source.

Assay [1] in a line: MIC against MRSA isolates. In kind it is cell-based, S. aureus. Particulars: Staphylococcus aureus. Here is the method: The MICs of S. aureus ATCC 33591, BAA-44, BAA-1707, BAA-1717, BAA-1720, BAA-1747, BAA-1754, BAA-1761, BAA-1763, BAA-1764, and BAA-1766 were measured using a cell concentration of about 5×10^5 colony forming units (CFU)/mL. In a 96-well microtiter plate, two-fold dilutions were made of each drug (starting with 100 μM) in 100 μL of a cell suspension in trypticase soy broth (TSB). The samples were incubated overnight at 37° C. on a rotary shaking incubator set at 100 revolutions per minute (rpm) and were visually inspected for turbidity. A 20% well-volume of 3-(4,5-dimethylthiazol-2-yl)-2,5-diphenyltetrazolium bromide (MTT reagent, 5 mg/mL) was added, and the samples were incubated for about 20 minutes. The MICs were determined as the lowest concentration at which full visual inhibition was observed by the unaided eye.

In assay [2] the test system is MRSA (ATCC No. BAA-44; ATCC No. BAA-1717). Nature of the assay: Light-activated killing (photodynamic therapy), colony counts. The conditions noted are these: FIG. 4. It is filed as cell-based, S. aureus. Here is the method: Bacterial media was inoculated with bacteria and incubated overnight. The bacterial cultures were diluted to 5×10^8 CFU/mL using a McFarland latex turbidity standard (0.5). Compound 1 was diluted with sterile DMSO, which was added to the cell suspension in a glass culture tube. The cells were then incubated for 30 minutes at 37° C. on a rotary shaking incubator at 150 rpm. 500 μL of the treated cell suspension was added to a well on a sterile ceramic drop plate. Non-coherent white light from a Lumacare™ LC-122 unit was used to irradiate the samples. The end of the light probe was placed 3 cm above the sample well, perpendicular to the surface of the sample, and light was applied for 2 minutes (15 seconds light, 15 seconds dark). 200 μL of the irradiated sample was transferred to a 96-well plastic microtiter plate, and five ten-fold dilutions were made in the media. 10 μL of each dilution was dripped onto an agar media plate and streaked down the plate by tilting the plate down. The agar plates were incubated at 37° C. overnight, and colony counts were performed to calculate the CFU/mL.
Dose-dependent effects of treating bacteria with compound 1 and irradiation with white light were assessed by treating 10^8 CFU/mL of cells with compound 1, followed by irradiation with white light for 2 minutes. Compound 1 was added at a specific concentration to 1 mL of a 10^8 CFU/mL suspension of the respective bacterial cells, and the cells were incubated at 37° C. for approximately 45 minutes on a rotary shaker at 150 rpm. 0.5 mL of the cell suspension was removed and placed into the wells of a sterile ceramic drop plate, and then the cells were irradiated with white light from a Lumacare™ LC 122A light source for 2 minutes at a distance of approximately 3 cm. The time and distance of the light application delivered about 85 J/cm^2 of 400-700 nm light to the sample. After being irradiated, ten-fold dilutions were made of each cell sample. The dilutions were drip-streaked onto a tryptic soy agar (TSA) plate and incubated at 37° C. for 18-24 hours. Enumeration of bacteria was determined from the dilution, which produced a drip-streak containing approximately 30-300 colonies. After counting the colonies, the CFU/mL was calculated by applying the respective dilution factor and a factor of 100 to account for the 10 μL of sample taken. Appropriate controls were prepared, including cells with no treatment, cells with only compound 1 added, and cells only treated with light.

Assay [3] deals with Klebsiella pneumoniae (CRE, ATCC BAA-1705). As to the kind of experiment: Time-dependent colony counts of CRE with compounds and PME. In kind it is cell-based. The conditions noted are these: PME 0.2 μg/mL, compound 20 μM; FIGS. 48, 49. The method, then:
The MICs of PME and compounds 8-11 were determined against Klebsiella pneumoniae (CRE, ATCC BAA-1705). […] […] At specific time points, the samples were taken and diluted ten-fold in media. Ten microliters of each dilution was then drip-streaked onto an agar plate and incubated overnight at 37° C. Colony counts were then performed and the CFU/mL were calculated.

The test system of a further assay is VRE. Nature of the assay: MIC against VRE. It is filed as cell-based, Enterococcus faecalis. Particulars: Enterococcus, TABLE 23, read-out: VRE MIC. Here is the method:
In a 12×75 mm borosilicate glass culture tube, 1 mL of cell suspension was added. Then, compound 7 was added to the cells, and the samples were mixed using a vortex mixer. […] The samples were incubated overnight at 37° C. on a rotary shaking incubator at 100 rpm.

A further assay concerns CRE. Nature of the assay: Resensitization to antibiotics (log reduction, TABLE 29). It is filed as cell-based. Particulars: compound 20 μM. The method, then:
In a 96-well microtiter plate, two-fold dilutions were made of each drug (starting with 100 μM) in 100 μL of a cell suspension in TSB. The resulting samples were incubated overnight at 37° C. on a rotary shaking incubator at 100 rpm. The samples were then visually inspected for turbidity. A 20% well volume of MTT reagent (5 mg/mL) was subsequently added, and the samples were incubated for about 20 minutes.

The next assay deals with P. aeruginosa. The description is as above. It is filed as cell-based. Particulars: compound 20 μM; PME (0.1 μg/mL).
Where [4] appears, read: MRSA (ATCC BAA-44), TABLE 21, read-out: MRSA MIC.
The mark [5] stands for this setting: MRSA isolate ATCC 33591, read-out: MIC.
Setting [6] is: MRSA isolate ATCC BAA-44, read-out: MIC.
Setting [7] is: MRSA isolate ATCC BAA-1707, read-out: MIC.
[8] abbreviates: MRSA isolate ATCC BAA-1717, read-out: MIC.
The mark [9] stands for this setting: MRSA isolate ATCC BAA-1720, read-out: MIC.
Setting [10] is: MRSA isolate ATCC BAA-1747, read-out: MIC.
[11] abbreviates: MRSA isolate ATCC BAA-1754, read-out: MIC.
[12] abbreviates: MRSA isolate ATCC BAA-1761, read-out: MIC.
Setting [13] is: MRSA isolate ATCC BAA-1763, read-out: MIC.
[14] abbreviates: MRSA isolate ATCC BAA-1764, read-out: MIC.
[15] abbreviates: MRSA isolate ATCC BAA-1766, read-out: MIC.

`Clc1ccc(/N=N/c2c[nH]c3ccccc23)cc1` [Compound 9]: the MIC was 16 µM (≈ 4.09 µg/mL) in assay [1] (setting [4]); 12.5 µM (≈ 3.2 µg/mL) in assay [1] (setting [5]); 16 µM (≈ 4.09 µg/mL) in assay [1] (setting [6]); 12.5 µM (≈ 3.2 µg/mL) in assay [1] (setting [7]); 6.3 to 12.5 µM (≈ 1.61 to 3.2 µg/mL) in assay [1] (setting [8]); 12.5 µM (≈ 3.2 µg/mL) in assay [1] (setting [9]). Besides, the MIC in assay [1] (setting [10]), in assay [1] (setting [11]), in assay [1] (setting [12]), in assay [1] (setting [13]), in assay [1] (setting [14]) and in assay [1] (setting [15]) was 12.5 µM (≈ 3.2 µg/mL) in each case. Moreover, in the assay on VRE, the MIC is greater than 200 µM. The “appearance of MRSA cells in SEM image” value in assay [2] (compound 9 alone, no light) is on record as “undamaged”; in assay [2] (compound 9 at 25 uM and light (LumaCare)) it was “appear to have burst from the inside”. For the same molecule, in assay [3], the “CRE colony populations on simultaneous treatment with PME” value (“CRE colony populations” for short) is listed as “reduced the CRE colony populations to sterility”. For the same molecule, the “Log Reduction” value is on record as 6 in the assay on CRE (PMB (0.2 μg/mL)), 6 in the assay on CRE (PME (0.2 μg/mL)) and 2 with P. aeruginosa.
As to `Clc1ccc(Oc2c(-c3ccc(Cl)cc3)[nH]c3ccccc23)cc1` [Compound 10], the MIC in assay [1] (setting [4]) turned out to be 16 µM (≈ 5.67 µg/mL); in assay [1] (setting [5]), 12.5 µM (≈ 4.43 µg/mL); in assay [1] (setting [6]), 8 µM (≈ 2.83 µg/mL); in assay [1] (setting [7]), 12.5 µM (≈ 4.43 µg/mL); in assay [1] (setting [8]) it was 6.3 µM (≈ 2.23 µg/mL); in assay [1] (setting [9]) it was 6.3 µM (≈ 2.23 µg/mL). Also, the MIC is 12.5 to 25 µM (≈ 4.43 to 8.86 µg/mL) in assay [1] (setting [10]); 50 µM (≈ 17.7 µg/mL) in assay [1] (setting [11]); greater than 100 µM in assay [1] (setting [12]); 50 to 100 µM (≈ 17.7 to 35.4 µg/mL) in assay [1] (setting [13]); greater than 100 µM in assay [1] (setting [14]); 25 to 50 µM (≈ 8.86 to 17.7 µg/mL) in assay [1] (setting [15]). Also, the MIC in the assay with VRE fell in the range of 10 to 20 µM (≈ 3.54 to 7.08 µg/mL). In addition, the “CRE colony populations” value in assay [3] is “reduced the CRE colony populations to sterility”. Besides, the entries for the “Log Reduction” value in the assay with CRE (PME (0.2 μg/mL)) and with P. aeruginosa were 6 and 2, respectively.
With `Clc1ccc(Oc2c(-c3ccc(Cl)cc3)[nH]c3ccc(Cl)cc23)cc1` [Compound 11], the minimum inhibitory concentration (MIC) in assay [1] (setting [4]) was 8 µM (≈ 3.11 µg/mL); in assay [1] (setting [5]) it was 6.3 to 12.5 µM (≈ 2.45 to 4.86 µg/mL); in assay [1] (setting [6]), 4 µM (≈ 1.55 µg/mL); in assay [1] (setting [7]) it was 12.5 µM (≈ 4.86 µg/mL); in assay [1] (setting [8]), 3.1 to 6.3 µM (≈ 1.2 to 2.45 µg/mL); in assay [1] (setting [9]), 3.1 to 6.3 µM (≈ 1.2 to 2.45 µg/mL). For the same molecule, the MIC was 6.3 to 12.5 µM (≈ 2.45 to 4.86 µg/mL) in assay [1] (setting [10]); 50 to 100 µM (≈ 19.4 to 38.9 µg/mL) in assay [1] (setting [11]); 50 to 100 µM (≈ 19.4 to 38.9 µg/mL) in assay [1] (setting [12]); 50 µM (≈ 19.4 µg/mL) in assay [1] (setting [13]); 50 µM (≈ 19.4 µg/mL) in assay [1] (setting [14]); 50 to 100 µM (≈ 19.4 to 38.9 µg/mL) in assay [1] (setting [15]). Moreover, the MIC with VRE came out at 20 µM (≈ 7.77 µg/mL). The “CRE colony populations” value in assay [3] is listed as “reduced the CRE colony populations to sterility”. For the same molecule, the “Log Reduction” value in the assay on CRE (PME (0.2 μg/mL)) came to 6; with P. aeruginosa, 2.

The MIC is the smallest concentration in the dilution series that meets the test's criterion for growth inhibition.
